Measurements: patent EP3319936B1, “BRIDGE LINKERS FOR CONJUGATION OF CELL-BINDING MOLECULES” (priority 2015, dated 2015)

Key:
HL60 cell (Ag-) = test: In vitro cytotoxicity (MTT) assay, HL60 cells; assay type: cell-based; settings: HL-60 human promyelocytic leukemia cell line, 120 hours incubation
Protocol: (§1) The cell lines used in the cytotoxicity assays were HL-60, a human promyelocytic leukemia cell line; NCI-N87, a human gastric carcinoma cell line; and SKOV3, a human ovarian carcinoma cell line. […] For SKOV3 cells, the cells were grown in McCoy's 5A Medium with 10% FBS. To run the assay, the cells (180 µl, 6000 cells) were added to each well in a 96-well plate and incubated for 24 hours at 37°C with 5% CO2. Next, the cells were treated with test compounds (20 µl) at various concentrations in appropriate cell culture medium (total volume, 0.2 mL). The control wells contain cells and the medium but lack the test compounds. The plates were incubated for 120 hours at 37°C with 5% CO2. MTT (5mg/ml) was then added to the wells (20 µl) and the plates were incubated for 1.5hr at 37°C. The medium was carefully removed and DMSO (180 µl) was added afterward. […] The inhibition% was calculated according to the following equation: inhibition% = [1-(assay-blank)/(control-blank)] × 100.

N87 cell (Ag+) = test: In vitro cytotoxicity (MTT) assay, N87 cells; assay type: cell-based, human
Protocol: as §1

SK-OV-3 cell (Ag+) = test: In vitro cytotoxicity (MTT) assay, SK-OV-3 cells; assay type: cell-based, human
Protocol: as §1

T-DM1
IC50 (HL60 cell (Ag-)): > 15 nM
IC50 (N87 cell (Ag+); NCI-N87 human gastric carcinoma cell line, 120 hours incubation, MTT): 0.266 nM
Specificity for N87 cell (N87 cell (Ag+); matches ratio of HL60 (Ag-) IC50 bound to N87 IC50): over 56
IC50 (SK-OV-3 cell (Ag+); SKOV3 human ovarian carcinoma cell line, 120 hours incubation, MTT): 0.177 nM
Specificity for SK-OV-3 cell (SK-OV-3 cell (Ag+); matches ratio of HL60 (Ag-) IC50 bound to SK-OV-3 IC50): over 84
